From patent publication US10913709B2, “STAT3 inhibitor formulation” (priority 2017, dated 2021)

Columns and labels:
[1] = Aqueous solubility in the presence of various bases (Example 1); format: physicochemical
From the text: (§1) The resulting mixtures were examined for both solubility and stability with the results being analyzed high-performance liquid chromatography (HPLC) with UV and mass spectroscopy detection.

[2] = Stability in water in the presence of various bases, HPLC with UV and MS detection (Example 1); format: physicochemical
From the text: as §1

[3] = cited from earlier work
[4] = Observation for toxicity and mortality in the PK study; format: in vivo
Experimental: Mice were weighed within 72 hours of receipt and again on Study Day −1. Mice were observed once daily prior to day 0, and at least twice daily beginning on day 0 for 24 hours post-dose for morbidity and moribundity.

[5] = Plasma stability in mouse plasma; format: in vitro ADME
Experimental: An hour-by-hour analysis was then conducted, showing a marked decrease at ambient conditions (see Table 4). […] It should be noted that the time measurement for ambient is listed in hours (Table 4) compared with the time for the −20° C., which was measured in days (Table 5).

[6] = Stability in acetonitrile extract (post sample preparation); format: physicochemical; conditions: 6 days
Experimental: In particular, once the centrifugation was performed on the blood samples to provide the plasma samples for analysis, extraction into acetonitrile was done as quickly as possible (e.g., <1 hour).

[7] = Body weight and toxicity during the chemoprevention study; format: in vivo, female MMTV/Neu mice; conditions: gavage 5 times/week, 500, 250, and 100 mg/kg BW/day, throughout the experiment
[8] = tested on: DMBA-induced mammary cancer; test: Chemoprevention study of DMBA-induced mammary cancer
From the text: The negative control group received vehicle (purified water) only. In order to accelerate tumor formation, the mice were also given 7,12-dimethylbenz[a]anthracene (DMBA) by gavage 1 time/week for 4 weeks beginning at 57 days of age. The study was terminated 4 months after DMBA exposure. During the treatment period, the body weights of the mice and the appearance of palpable mammary tumors were monitored on a weekly and twice-weekly basis, respectively.

Ki67 expression = Ki67 expression in normal mammary gland, immunohistochemical analysis; conditions: two weeks of treatment
Experimental: Ki67 expression was assessed by immunohistochemical analysis of the normal ductal epithelium. Stained sections were scanned and quantitated using automated image analysis software.

For `Cc1ccc(S(=O)(=O)OCC(=O)Nc2ccc(C(=O)O)c(O)c2)cc1` [NSC-74859], the solubility ([1]; water with 1.1 molar equivalents of TRIZMA base, aqueous buffer, thermodynamic from solid, with 1.1 molar equivalents TRIZMA (2-amino-2-(hydroxymethyl)-1,3-propanediol), pH 7 water) was about 60 mg/mL, the aqueous solubility ([1]; with 1.1 molar equivalents of base in water, all bases examined (LiOH, NaOH, K2CO3, NaHCO3, TRIZMA)) was “good aqueous solubility” and the “degradation (loss of the tosylate group)” value ([2]; in stronger bases, such as sodium hydroxide, in water) was “Degradation was much more pronounced”. For the same compound, the “time the product remained stable” value ([2]; with TRIZMA, in water at room temperature, initial analysis) was about 8 h and the “solubility in water and ethanol” value [3] was “poorly soluble in water and ethanol”.

For `Cc1ccc(S(=O)(=O)OCC(=O)Nc2ccc(C(=O)O)c(O)c2)cc1` [Compound 1], the solubility in water ([1]; water) was “highly soluble in water”, the “signs of toxicity post-dose” value ([4]; groups A-H: IV 50 mg/kg, PO 500, 250, 125 mg/kg, observed 24 hours post-dose) was “None of the mice in groups A-H demonstrated signs of toxicity” and the mortality ([4]; oral or IV administration, any of the doses administered) was “no mortality”. For the same compound, the recovery at 0 h ([5]; ambient conditions, 0 hours) was 88.6%, the recovery at 1 h ([5]; ambient conditions, 1 hour) was 61.2% and the recovery at 2 h ([5]; ambient conditions, 2 hours) was 52.6%. It also gave a recovery at 3 h ([5]; ambient conditions, 3 hours) of 28.7%, a recovery at 5 h ([5]; ambient conditions, 5 hours) of 21.3% and a recovery at 6 h ([5]; ambient conditions, 6 hours) of 15.8%. For the same compound, the “plasma stability, daily assessment” value ([5]; samples assessed daily, no free acid observed after 1 day) was “stability was short”, the recovery at 0 days ([5]; −20° C., 0 days) was 94.5% and the recovery at 1 days ([5]; −20° C., 1 day) was 76.6%. For the same compound, the recovery at 2 days ([5]; −20° C., 2 days) was 65.7%, the recovery at 3 days ([5]; −20° C., 3 days) was 58% and the recovery at 6 days ([5]; −20° C., 6 days) was 46.6%. The “stability in an acetonitrile extract” value [6] was “little/no degradation”, the “weight loss or toxicity” value [7] was “No weight loss or toxicity was observed” and the “effect in preventing breast cancer” value ([8]; 500 mg/kg BW/day by gavage) was “greatest effect”. The “onset of DMBA-induced breast cancer” value ([8]; all doses tested (500, 250, and 100 mg/kg BW/day by gavage)) was “able to delay the onset”, the “incidence, multiplicity, and weights of mammary tumors compared to the vehicle-only control” value ([8]; gavage 5 times/week, 500, 250, and 100 mg/kg BW/day, DMBA-accelerated, 4 months) was “dose-dependent decrease” and the “inhibition of Ki67” value (Ki67 expression; 250 mg/kg BW/day) was 85%. For the same compound, the “inhibition of Ki67” value (Ki67 expression; 500 mg/kg BW/day) was 83%.
